Measured values published in PubChem BioAssay AID1259407 (Chemical Carcinogenesis Research Information System (CCRIS), 2018).
Active and inactive are the calls of the source. How the calls were made is not given here.

Test system: CCRIS mutagenicity, Ames/micronucleus/aberration tests
Test: CCRIS mutagenicity studies
[1] = Test System: AMES SALMONELLA TYPHIMURIUM, Strain/Indicator: TA1535, Metabolic Activation: NONE, Method: PREINCUBATION
[2] = Test System: AMES SALMONELLA TYPHIMURIUM, Strain/Indicator: TA1537, Metabolic Activation: NONE, Method: PREINCUBATION
[3] = Test System: AMES SALMONELLA TYPHIMURIUM, Strain/Indicator: TA98, Metabolic Activation: NONE, Method: PREINCUBATION
[4] = Test System: AMES SALMONELLA TYPHIMURIUM, Strain/Indicator: TA100, Metabolic Activation: NONE, Method: PREINCUBATION
[5] = Test System: E. COLI, Strain/Indicator: WP2 UVRA, Metabolic Activation: NONE, Method: PREINCUBATION
[6] = Test System: AMES SALMONELLA TYPHIMURIUM, Strain/Indicator: TA98, Metabolic Activation: NONE, Method: STANDARD PLATE
[7] = Test System: AMES SALMONELLA TYPHIMURIUM, Strain/Indicator: TA100, Metabolic Activation: NONE, Method: STANDARD PLATE
[8] = Test System: AMES SALMONELLA TYPHIMURIUM, Strain/Indicator: TA102, Metabolic Activation: NONE, Method: STANDARD PLATE
[9] = Test System: AMES SALMONELLA TYPHIMURIUM, Strain/Indicator: TA100, Metabolic Activation: RAT, LIVER, S-9, AROCLOR 1254, Method: STANDARD PLATE
[10] = Test System: AMES SALMONELLA TYPHIMURIUM, Strain/Indicator: TA98, Metabolic Activation: RAT, LIVER, S-9, AROCLOR 1254, Method: STANDARD PLATE

N[C@@H](CCC(=O)NNc1ccc(CO)cc1)C(=O)O
mutagenic call (Test System: AMES SALMONELLA TYPHIMURIUM, Strain/Indicator: TA97, Metabolic Activation: NONE): active; positive
mutagenic call (Test System: AMES SALMONELLA TYPHIMURIUM, Strain/Indicator: TA98, Metabolic Activation: NONE): inactive; negative
mutagenic call (Test System: AMES SALMONELLA TYPHIMURIUM, Strain/Indicator: TA100, Metabolic Activation: NONE): inactive; negative
mutagenic call (Test System: AMES SALMONELLA TYPHIMURIUM, Strain/Indicator: TA102, Metabolic Activation: NONE): inactive; negative
mutagenic call (Test System: AMES SALMONELLA TYPHIMURIUM, Strain/Indicator: TA104, Metabolic Activation: MUSHROOM TYROSINASE, Method: PREINCUBATION): inactive; negative
mutagenic call (Test System: AMES SALMONELLA TYPHIMURIUM, Strain/Indicator: TA104, Metabolic Activation: NONE): active; positive
mutagenic call (Test System: AMES SALMONELLA TYPHIMURIUM, Strain/Indicator: TA104, Metabolic Activation: NONE, Method: PREINCUBATION): inactive; negative
mutagenic call (Test System: AMES SALMONELLA TYPHIMURIUM, Strain/Indicator: TA104, Metabolic Activation: RAT, KIDNEY, HOMOGENATE, REDUCED GLUTATHIONE, Method: PREINCUBATION): active; positive
mutagenic call (Test System: AMES SALMONELLA TYPHIMURIUM, Strain/Indicator: TA104, Metabolic Activation: RAT, KIDNEY, HOMOGENATE, Method: PREINCUBATION): active; positive
mutagenic call (Test System: AMES SALMONELLA TYPHIMURIUM, Strain/Indicator: TA104, Metabolic Activation: RAT, LIVER, CYTOSOL, AROCLOR 1254, NADPH, Method: PREINCUBATION): active; positive
mutagenic call (Test System: AMES SALMONELLA TYPHIMURIUM, Strain/Indicator: TA104, Metabolic Activation: RAT, LIVER, CYTOSOLIC FRACTION, AROCLOR 1254 (10%)): active; positive
mutagenic call (Test System: AMES SALMONELLA TYPHIMURIUM, Strain/Indicator: TA104, Metabolic Activation: RAT, LIVER, MICROSOMES, AROCLOR 1254, Method: PREINCUBATION): inactive; negative
mutagenic call (Test System: AMES SALMONELLA TYPHIMURIUM, Strain/Indicator: TA104, Metabolic Activation: RAT, LIVER, MICROSOMES, AROCLOR 1254 AND RAT, KIDNEY, HOMOGENATE, Method: PREINCUBATION): active; positive
mutagenic call (Test System: AMES SALMONELLA TYPHIMURIUM, Strain/Indicator: TA1535, Metabolic Activation: NONE): inactive; negative
mutagenic call [1]: inactive; negative
mutagenic call (Test System: AMES SALMONELLA TYPHIMURIUM, Strain/Indicator: TA1535, Metabolic Activation: RAT, LIVER, S-9, AROCLOR 1254, Method: PREINCUBATION): inactive; negative
mutagenic call (Test System: AMES SALMONELLA TYPHIMURIUM, Strain/Indicator: TA1537, Metabolic Activation: NONE): active; positive
mutagenic call [2]: inactive; negative
mutagenic call (Test System: AMES SALMONELLA TYPHIMURIUM, Strain/Indicator: TA1537, Metabolic Activation: RAT, LIVER, S-9, AROCLOR 1254, Method: PREINCUBATION): inactive; negative
mutagenic call (Test System: AMES SALMONELLA TYPHIMURIUM, Strain/Indicator: TA1538, Metabolic Activation: NONE): inactive; negative

COc1cc(OC)c(Cl)c(-n2c(-c3ccccc3)cc(=O)c(C)c2-c2ccc(F)cc2)c1
mutagenic call [3]: inactive; negative
mutagenic call (Test System: AMES SALMONELLA TYPHIMURIUM, Strain/Indicator: TA98, Metabolic Activation: S-9, Method: PREINCUBATION): inactive; negative
mutagenic call [4]: inactive; negative
mutagenic call (Test System: AMES SALMONELLA TYPHIMURIUM, Strain/Indicator: TA100, Metabolic Activation: S-9, Method: PREINCUBATION): inactive; negative
mutagenic call (Test System: AMES SALMONELLA TYPHIMURIUM, Strain/Indicator: TA102, Metabolic Activation: NONE, Method: PREINCUBATION): inactive; negative
mutagenic call (Test System: AMES SALMONELLA TYPHIMURIUM, Strain/Indicator: TA102, Metabolic Activation: S-9, Method: PREINCUBATION): inactive; negative
mutagenic call [1]: inactive; negative
mutagenic call (Test System: AMES SALMONELLA TYPHIMURIUM, Strain/Indicator: TA1535, Metabolic Activation: S-9, Method: PREINCUBATION): inactive; negative
mutagenic call [2]: inactive; negative
mutagenic call (Test System: AMES SALMONELLA TYPHIMURIUM, Strain/Indicator: TA1537, Metabolic Activation: S-9, Method: PREINCUBATION): inactive; negative
mutagenic call [5]: inactive; negative
mutagenic call (Test System: E. COLI, Strain/Indicator: WP2 UVRA, Metabolic Activation: S-9, Method: PREINCUBATION): inactive; negative

Cc1ccc([N+](=O)[O-])c2c(NCCCN(C)C)c3ccccc3nc12
mutagenic call [6]: active; positive
mutagenic call [7]: active; positive

CC(Br)Br
mutagenic call [8]: inactive; negative
mutagenic call (Test System: AMES SALMONELLA TYPHIMURIUM, Strain/Indicator: TA2638, Metabolic Activation: NONE, Method: STANDARD PLATE): inactive; negative
mutagenic call (Test System: E. COLI, Strain/Indicator: WP2 (PKM101), Metabolic Activation: NONE, Method: STANDARD PLATE): inactive; negative
mutagenic call (Test System: E. COLI, Strain/Indicator: WP2 UVRA (PKM101), Metabolic Activation: NONE, Method: STANDARD PLATE): inactive; negative

c1cc2c3c(c1)ccc1cccc(c13)C2
mutagenic call (Test System: AMES SALMONELLA TYPHIMURIUM, Strain/Indicator: TA98, Metabolic Activation: HAMSTER, LIVER, S-9, AROCLOR 1254 (30%), Method: PREINCUBATION): active; positive
mutagenic call [3]: inactive; negative
mutagenic call (Test System: AMES SALMONELLA TYPHIMURIUM, Strain/Indicator: TA98, Metabolic Activation: RAT, LIVER, S-9, AROCLOR 1254 (30%), Method: PREINCUBATION): inactive; negative
mutagenic call (Test System: AMES SALMONELLA TYPHIMURIUM, Strain/Indicator: TA100, Metabolic Activation: HAMSTER, LIVER, S-9, AROCLOR 1254 (30%), Method: PREINCUBATION): active; positive
mutagenic call [4]: inactive; negative
mutagenic call (Test System: AMES SALMONELLA TYPHIMURIUM, Strain/Indicator: TA100, Metabolic Activation: RAT, LIVER, S-9, AROCLOR 1254 (30%), Method: PREINCUBATION): active; positive
mutagenic call [9]: inactive; negative

Nc1ccc(CCc2ccccc2)cc1
mutagenic call [6]: inactive; negative
mutagenic call [10]: active; positive
mutagenic call [7]: inactive; negative
mutagenic call [9]: active; positive

Cc1cc2ncccc2c2ncn(C)c12
mutagenic call [3]: inactive; negative
mutagenic call (Test System: AMES SALMONELLA TYPHIMURIUM, Strain/Indicator: TA98, Metabolic Activation: RAT, LIVER, S-9, AROCLOR 1254, Method: PREINCUBATION): inactive; negative
mutagenic call [4]: inactive; negative
mutagenic call (Test System: AMES SALMONELLA TYPHIMURIUM, Strain/Indicator: TA100, Metabolic Activation: RAT, LIVER, S-9, AROCLOR 1254, Method: PREINCUBATION): inactive; negative

COc1ccc2c(CBr)cc(=O)oc2c1
mutagenic call [3]: inactive; negative
mutagenic call (Test System: AMES SALMONELLA TYPHIMURIUM, Strain/Indicator: TA98, Metabolic Activation: RAT, LIVER, S-9, PCB, Method: PREINCUBATION): inactive; negative
mutagenic call [4]: inactive; negative
mutagenic call (Test System: AMES SALMONELLA TYPHIMURIUM, Strain/Indicator: TA100, Metabolic Activation: RAT, LIVER, S-9, PCB, Method: PREINCUBATION): inactive; negative
mutagenic call [5]: inactive; negative

CS(=N)(=O)CCC(N)C(=O)O (stereo not drawn)
mutagenic call [8]: inactive; negative
mutagenic call (Test System: AMES SALMONELLA TYPHIMURIUM, Strain/Indicator: TA102, Metabolic Activation: RAT, LIVER, S-9, AROCLOR 1254, Method: STANDARD PLATE): inactive; negative

CCOc1ccccc1OCC1CNCCO1 (stereo not drawn)
mutagenic call [6]: inactive; negative
mutagenic call [10]: inactive; negative
mutagenic call [7]: inactive; negative
mutagenic call [9]: inactive; negative
mutagenic call (Test System: AMES SALMONELLA TYPHIMURIUM, Strain/Indicator: TA1535, Metabolic Activation: NONE, Method: STANDARD PLATE): inactive; negative
mutagenic call (Test System: AMES SALMONELLA TYPHIMURIUM, Strain/Indicator: TA1535, Metabolic Activation: RAT, LIVER, S-9, AROCLOR 1254, Method: STANDARD PLATE): inactive; negative
mutagenic call (Test System: AMES SALMONELLA TYPHIMURIUM, Strain/Indicator: TA1537, Metabolic Activation: NONE, Method: STANDARD PLATE): inactive; negative
mutagenic call (Test System: AMES SALMONELLA TYPHIMURIUM, Strain/Indicator: TA1537, Metabolic Activation: RAT, LIVER, S-9, AROCLOR 1254, Method: STANDARD PLATE): inactive; negative
